Data: patent US20220033448A1, “METHODS FOR AGGREGATION OF PROTEINS” (priority 2011, published 2022)
No end group written: not given here.

Assays:
[1] = test system: S. epidermidis strain ATCC 12228 and S. aureus ATCC; type: cell-based, Staphylococcus
Method: Time-kill curves were obtained to study the kinetics of bactericidal activity. Compounds C30, Hit50 and C29 (for sequences see above) were tested against S. epidermidis strain ATCC 12228 and S. aureus ATCC at the compound's MIC and two times MIC value. It was shown that compound C30 decreased the viable counts by 100% within 5 min, while Hit50 reduced the viable counts by ^˜3 log units after the same incubation period, both at a concentration that equaled its MIC value (see FIG. 11A and FIG. 11B). […] For example the time needed to decrease the number of CFU/ml one-fold for C29 was 60 minutes (at the minimum inhibitory concentration), and only 10 minutes for 2×MIC.

[2] = Preliminary in vivo toxicity in rats; conditions: 1.5 mg/kg and 3 mg/kg, single injection into a tail vein, observed over several days
Method: In order to assess the toxicity of the antibacterial peptide interferors in vivo, eight germ-free fisher male and female rats, weighing approximately ±350 grams were injected with peptide interferor C30 in buffer A: histidine-acetate(pH 6.5) and buffer B phosphate buffer (pH 6.5). Two rats were injected with a concentration of 1.5 mg/kg and two with a concentration of 3 mg/kg. These were single non repeatable injections into a tail vein.

E. faecalis = E. faecalis ATCC 19433; planktonic; 18 hours
Method: (§1) Bacteria were grown in a shaking incubator at 37° C. and 160rpm in 50 ml BHI , using individual colonies retrieved from a fresh overnight TSA-sheep blood plate. The cultures were grown to a density of approximately 1×10^8cells/ml and then diluted to 5×10^5 cells/ml in CAMHB (Mc Farland 0.5). Each well contained 100p.I (50p.I of peptide containing MHB plus 50 μl inoculum). The final cell density was 1×10^5 to 5×10^5/ml. After addition of the cell suspension, plates were incubated at 37° C. for 18 to 24 hours. The optical density at 590 nm (OD590) of each well was measured after 5 seconds of shaking the plate using Perkin Elmer spectrophotometer (1420 Multilabel Counter Vicotr 3). […] Each well, where no growth was observed, was also plated on TSA-sheep blood agar plates, incubated at 37° C. overnight and visually inspected.
A microbroth dilution method was used with twofold serial dilutions in CAMHB (according to EMEA guidelines) was used for screening of peptide activity, with concentrations ranging from 0.3 μg/mIto 200 μg/ml.

VRE strains = test: MIC, microbroth dilution; conditions: planktonic, 18 hours
Method: as §1

Candida albicans SC5314 = test: In vitro mature C. albicans biofilm formation on polystyrene (XTT reduction assay); type: cell-based; conditions: 250 μM, 50 μM and 10 μM; peptide during adhesion only or during whole biofilm development; p<0.001
Method: The initial screening and search for optimal Als3 candidate interferors was based on the C. albicans SC5314 adhesion assay on 96-well polystyrene plates upon administration of all the peptides at three different concentrations (250 μM, 50 μM and 10 μM). Based on the results obtained with this adhesion assay, we also tested the effect of peptides on mature biofilm development. The final election of the most optimal candidate interferor peptides was based on the results showing reduction in adhesion and mature biofilm formation caused by the lowest concentration of the peptide tested (10 μM or 2.5 μM).
In a next step, lower concentrations of peptide F9 (50 μM, 10 μM and 2.5 μM) were also tested. […] Both assays were performed in 96-well polystyrene plates and quantified by the XTT reduction assay (see material and methods section).
In vitro C. albicans biofilm was studied on three different types of biomaterials, namely flat bottom 96-well polystyrene plate (Greiner Bio-One, Germany), silicone (CS Hyde, USA) and polyurethane triple lumen intravenous catheters (2.4mm diameter) (Arrow International Reading, USA). […] After that, the biofilms were washed twice with 1×PBS and quantified.
The metabolic activity of Candida cells within in vitro biofilms was studied using the XTT reduction assay. […] The intensity of colorimetric change was measured by spectrophotometer (Spectra max Plus 384) at 490 nm. […]

Sequence | time needed to kill Staphylococci [1] | decrease of viable counts ([1]; Staphylococcus epidermidis and Staphylococcus aureus, 5 min, 1 ×MIC) | mortality and side effects [2] | MIC (E. faecalis) | maximal increase of the MIC (MRSA strain 326; 31 days, concentration in medium adjusted to MIC of previous day) | MIC on the last day of the experiment (MRSA strain 326; day 31) | MIC (VRE strains; VRE 8) | MIC (VRE strains; VRE 11) | MIC (VRE strains; VRE 12) | MIC (VRE strains; VRE 40) | MIC (VRE strains; VRE 54) | MIC (VRE strains; VRE 60) | MIC (VRE strains; VRE 70) | biofilm formation (metabolic activity compared to control) (Candida albicans SC5314)
RILLGLIRRGSRILLGLIRR [C30] | 5 to 10 min | 100% | no mortality nor any other side effects were apparently visible | E. faecalis ATCC 19433: 6 μg/ml | ≤ 4 fold | 12,5 μg/ml | VRE 8: 3 μg/ml | VRE 11: 1.5 μg/ml | VRE 12: 12.5 μg/ml | VRE 40: 3 μg/ml | VRE 54: 3 μg/ml | VRE 60: 3 μg/ml | VRE 70: 1.5 μg/ml | –
RKLLFNLGSRNGIVIVATTR [F9] | – | – | – | – | – | – | – | – | – | – | – | – | – | significant reduction in biofilm formation
